Literature values, collected in patent US20260114463A1, “COATING LIQUID COMPOSITION, PRODUCTION METHOD THEREFOR, AND LIQUID CONTAINING LOW-TEMPERATURE DAMAGE INHIBITOR” (Mitsubishi Chemical Corporation, priority 2023, published 2026).

Settings: raw material data

Substance: Glycerin monocaprylate [Example M-100]
- HLB: 7.0
